The test concerns the target T1, PE-labeled human PD-L1-Ig binding to Jurkat cell line over-expressing human PD-1 (Jurkat-PD-1) (Homo sapiens, UniProt Q15116).
T1 construct: expressed in transfected cells; host or cells: Jurkat
Description: Jurkat-PD-1 Cell Binding High-Content Screening Assay (CBA): Method 1. As to conditions: Jurkat-hPD-1 cells, PE-labeled PD-L1-Ig 20 nM final.

Where [1] appears, read: read-out: Jurkat HPDL1 PD1 IC50 (uM) (Method 1).

Read-outs that look alike come from different tables or passages of the source. Bridge positions count the residues as written; N and C are the ends. Square brackets hold non-standard residues; d marks the D form. Peptide text beside a SMILES is read from it. * marks the point of attachment. ξ: configuration not given here. Ala(morpholin-4-yl) = N[C@@H](CN1CCOCC1)C(=O)O; Phe(4-COOH) = N[C@@H](Cc1ccc(C(=O)O)cc1)C(=O)O; Bip = N[C@@H](Cc1ccc(-c2ccccc2)cc1)C(=O)O; Phe(3-CN) = N#Cc1cccc(C[C@H](N)C(=O)O)c1; Phe(2-Br) = N[C@@H](Cc1ccccc1Br)C(=O)O; Phe(3-Me) = Cc1cccc(C[C@H](N)C(=O)O)c1; 4Pal = N[C@@H](Cc1ccncc1)C(=O)O; Cha = N[C@@H](CC1CCCCC1)C(=O)O; Cit = NC(=O)NCCC[C@H](N)C(=O)O; Ile(3ξ) = CCC(C)[C@H](N)C(=O)O; Thr(3ξ) = CC(O)[C@H](N)C(=O)O; Dap(Me) = CNC[C@H](N)C(=O)O; Carboxymethyl = O=C(O)C*; NMeA = CN[C@@H](C)C(=O)O; Orn = NCCC[C@H](N)C(=O)O; Dab = NCC[C@H](N)C(=O)O; Dap = NC[C@H](N)C(=O)O; ξDab = NCCC(N)C(=O)O

T1 sequence (Q15116 25-288): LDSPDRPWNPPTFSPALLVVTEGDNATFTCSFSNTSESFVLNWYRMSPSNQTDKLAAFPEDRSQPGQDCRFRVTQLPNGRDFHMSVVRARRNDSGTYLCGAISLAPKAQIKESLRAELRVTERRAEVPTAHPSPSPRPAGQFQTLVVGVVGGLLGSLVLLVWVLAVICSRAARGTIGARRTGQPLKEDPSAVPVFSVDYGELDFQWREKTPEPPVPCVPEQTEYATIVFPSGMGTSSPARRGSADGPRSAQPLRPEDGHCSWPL

Take `CC(C)C[C@@H]1NC(=O)[C@H](CCN)NC(=O)[C@@H](CC(C)C)NC(=O)[C@H](C)N(C)C(=O)[C@H](CCCNC(=N)N)NC(=O)[C@H](Cc2ccc(-c3ccccc3)cc2)NC(=O)[C@H](C(C)C)NC(=O)[C@H](Cc2cccc(C#N)c2)NC(=O)[C@H](CC(=O)O)NC(=O)[C@H](Cc2ccc(OCC(=O)O)cc2)NC(=O)[C@H](CN)NC(=O)CSC[C@@H](C(=O)N[C@@H](C)C(N)=O)NC(=O)[C@H]([C@@H](C)O)NC(=O)[C@H](C(C)C)NC1=O` [Compound 1449] ({CH2CO}-[Dap]Y(Carboxymethyl)D[Phe(3-CN)]V[Bip]R[NMeA][dL][Dab]LVTCA-NH2; thioether N-14): the IC50 (in general, the point on the concentration scale where inhibition reaches its midpoint) under setting [1] was found to be 0.17 µM.

For `Cc1cccc(C[C@@H]2NC(=O)[C@H](CC(=O)O)NC(=O)[C@H](Cc3ccc(OCC(=O)O)cc3)NC(=O)[C@H](CN3CCOCC3)NC(=O)CSC[C@@H](C(=O)NC(CCN)C(N)=O)NC(=O)[C@H](CCCN)NC(=O)[C@H](C(C)C)NC(=O)[C@H](Cc3ccc(O)cc3)NC(=O)[C@H](CCN)NC(=O)[C@@H](CC(C)C)NC(=O)[C@H](C)N(C)C(=O)[C@H](CCC(N)=O)NC(=O)[C@H](Cc3ccc(-c4ccccc4)cc3)NC(=O)[C@H](Cc3ccc(C(=O)O)cc3)NC2=O)c1` (stereo partly drawn) [Example 2301] ({CH2CO}-[Ala(morpholin-4-yl)]Y(Carboxymethyl)D[Phe(3-Me)][Phe(4-COOH)][Bip]Q[NMeA][dL][Dab]YV[Orn]C[ξDab]-NH2; thioether N-14), the IC50 under setting [1] is 0.98 µM.

With `CNC[C@@H]1NC(=O)[C@@H](CC(C)C)NC(=O)[C@H](C)N(C)C(=O)[C@H](CCCNC(N)=O)NC(=O)[C@H](Cc2ccc(-c3ccccc3)cc2)NC(=O)[C@H](C(C)C)NC(=O)[C@H](Cc2c[nH]c3ccccc23)NC(=O)[C@H](CC(=O)O)NC(=O)[C@H](Cc2ccc(O)cc2)NC(=O)[C@H](CC(N)=O)NC(=O)CSC[C@@H](C(=O)N[C@@H](C)C(N)=O)NC(=O)[C@H](C(C)O)NC(=O)[C@H](C(C)C)NC(=O)[C@H](CC(C)C)NC1=O` (stereo partly drawn) [Compound 2039] ({CH2CO}-NYDWV[Bip][Cit][NMeA][dL][Dap(Me)]LV[Thr(3ξ)]CA-NH2; thioether N-14), under setting [1], the IC50 was found to be 0.08 µM.

Take `CC(C)C[C@@H]1NC(=O)[C@H](CCN)NC(=O)[C@@H](CC(C)C)NC(=O)[C@H](C)N(C)C(=O)[C@H](CCCN)NC(=O)[C@H](Cc2ccc(-c3ccccc3)cc2)NC(=O)[C@H](C(C)C)NC(=O)[C@H](Cc2c[nH]c3ccccc23)NC(=O)[C@H](CC(=O)O)NC(=O)[C@H](Cc2ccc(O)cc2)NC(=O)[C@H](Cc2ccccc2)NC(=O)CSC[C@@H](C(=O)N[C@@H](C)C(N)=O)NC(=O)[C@H]([C@@H](C)O)NC(=O)[C@H](C(C)C)NC1=O` [Compound 1121] ({CH2CO}-FYDWV[Bip][Orn][NMeA][dL][Dab]LVTCA-NH2; thioether N-14): under setting [1], the IC50 was determined as 0.06 µM.

As to `CC(C)C[C@@H]1NC(=O)[C@H](Cc2c[nH]c3ccccc23)NC(=O)[C@H](CC(=O)O)NC(=O)[C@H](Cc2ccccc2Br)NC(=O)[C@H](Cc2ccccc2)NC(=O)CSC[C@@H](C(=O)N[C@@H](C)C(N)=O)NC(=O)[C@H](CO)NC(=O)[C@H](C(C)C)NC(=O)[C@H](CC(C)C)NC(=O)[C@H](CC(N)=O)NC(=O)[C@@H](C)NC(=O)[C@H](C)N(C)C(=O)[C@H](C(C)C)NC(=O)[C@H](Cc2ccc(-c3ccccc3)cc2)NC1=O` [Compound 1823] ({CH2CO}-F[Phe(2-Br)]DWL[Bip]V[NMeA][dA]NLVSCA-NH2; thioether N-14), the IC50 under setting [1] amounted to 0.6 µM.

Turning to `CC(C)C[C@@H]1NC(=O)[C@H](CCN)NC(=O)[C@@H](CC(C)C)NC(=O)[C@H](C)N(C)C(=O)[C@H](C(C)C)NC(=O)[C@H](Cc2ccc(-c3ccccc3)cc2)NC(=O)[C@H](C(C)C)NC(=O)[C@H](Cc2c[nH]c3ccccc23)NC(=O)[C@H](CC(=O)O)NC(=O)[C@H](Cc2ccncc2)NC(=O)[C@H](CN)NC(=O)CSC[C@@H](C(=O)N[C@@H](C)C(N)=O)NC(=O)[C@H]([C@@H](C)O)NC(=O)[C@H](C(C)C)NC1=O` [Compound 1542] ({CH2CO}-[Dap][4Pal]DWV[Bip]V[NMeA][dL][Dab]LVTCA-NH2; thioether N-14), under “Jurkat HPDL1 PD1 IC50 (uM) (Method 1)”, the IC50 is 0.04 µM.

Turning to `CCC(C)[C@@H]1NC(=O)[C@H](Cc2ccc(-c3ccccc3)cc2)NC(=O)[C@H](C(C)C)NC(=O)[C@H](Cc2cccc(C)c2)NC(=O)[C@H](CC(=O)O)NC(=O)[C@H](Cc2ccc(OCC(=O)O)cc2)NC(=O)[C@H](C(C)O)NC(=O)CSC[C@@H](C(N)=O)NC(=O)[C@H](C(C)O)NC(=O)[C@H](C(C)C)NC(=O)[C@H](CC2CCCCC2)NC(=O)[C@H](CCN)NC(=O)[C@@H](CC(C)C)NC(=O)[C@H](C)N(C)C1=O` (stereo partly drawn) [Compound 2250] ({CH2CO}-[Thr(3ξ)]Y(Carboxymethyl)D[Phe(3-Me)]V[Bip][Ile(3ξ)][NMeA][dL][Dab][Cha]V[Thr(3ξ)]C-NH2; thioether N-14), under setting [1], the IC50 was found to be 0.02 µM.

For `CC[C@H](C)[C@@H]1NC(=O)[C@H](Cc2ccc(-c3ccccc3)cc2)NC(=O)[C@H](C(C)C)NC(=O)[C@H](Cc2c[nH]c3ccccc23)NC(=O)[C@H](CC(=O)O)NC(=O)[C@H](Cc2ccncc2)NC(=O)[C@H](Cc2ccncc2)NC(=O)CSC[C@@H](C(=O)N[C@@H](C)C(N)=O)NC(=O)[C@H]([C@@H](C)O)NC(=O)[C@H](C(C)C)NC(=O)[C@H](CC(C)C)NC(=O)[C@H](CCN)NC(=O)[C@@H](CC(C)C)NC(=O)[C@H](C)N(C)C1=O` [Compound 1410] ({CH2CO}-[4Pal][4Pal]DWV[Bip]I[NMeA][dL][Dab]LVTCA-NH2; thioether N-14), the IC50 under setting [1] came out at 0.02 µM.

On to `CC(C)C[C@H]1NC(=O)[C@H](C)N(C)C(=O)[C@H](C(C)C)NC(=O)[C@H](Cc2ccc(-c3ccccc3)cc2)NC(=O)[C@H](C(C)C)NC(=O)[C@H](Cc2c[nH]c3ccccc23)NC(=O)[C@H](CC(=O)O)NC(=O)[C@H](Cc2ccc(O)cc2)NC(=O)[C@H](CN)NC(=O)CSC[C@@H](C(=O)N[C@@H](C)C(N)=O)NC(=O)[C@H]([C@@H](C)O)NC(=O)[C@H](C(C)C)NC(=O)[C@H](CC2CCCCC2)NC(=O)[C@H](CCCNC(=N)N)NC1=O` [Compound 1485] ({CH2CO}-[Dap]YDWV[Bip]V[NMeA][dL]R[Cha]VTCA-NH2; thioether N-14), for which the IC50 under setting [1] was determined as 0.39 µM.

Regarding `CC(C)C[C@@H]1NC(=O)[C@H](Cc2c[nH]c3ccccc23)NC(=O)[C@H](CC(=O)O)NC(=O)[C@H](Cc2ccc(O)cc2)NC(=O)[C@H](Cc2ccccc2)NC(=O)CSC[C@@H](C(=O)NCC(N)=O)NC(=O)[C@H]([C@@H](C)O)NC(=O)[C@H](C(C)C)NC(=O)[C@H](CC(C)C)NC(=O)[C@H](CC(N)=O)NC(=O)[C@@H](C)NC(=O)[C@H](C)N(C)C(=O)[C@H](C(C)C)NC(=O)[C@H](Cc2ccc(-c3ccccc3)cc2)NC1=O` [Compound 1476] ({CH2CO}-FYDWL[Bip]V[NMeA][dA]NLVTCG-NH2; thioether N-14), the IC50 under setting [1] came out at 0.06 µM.

Take `CC(=O)NCCCC[C@@H]1NC(=O)[C@H](C(C)C)NC(=O)[C@H](CC2CCCCC2)NC(=O)[C@H](CCN)NC(=O)[C@@H](CC(C)C)NC(=O)[C@H](C)N(C)C(=O)[C@H](CC(N)=O)NC(=O)[C@H](Cc2ccc(-c3ccccc3)cc2)NC(=O)[C@H](C(C)C)NC(=O)[C@H](Cc2cccc(C)c2)NC(=O)[C@H](CC(=O)O)NC(=O)[C@H](Cc2ccc(OCC(=O)O)cc2)NC(=O)[C@H](Cc2ccc(OCC(=O)O)cc2)NC(=O)CSC[C@@H](C(N)=O)NC1=O` [Compound 2263] ({CH2CO}-Y(Carboxymethyl)Y(Carboxymethyl)D[Phe(3-Me)]V[Bip]N[NMeA][dL][Dab][Cha]VK(Ac)C-NH2; thioether N-14): the IC50 under setting [1] came out at 0.01 µM.

Consider `CC(C)C[C@@H]1NC(=O)[C@H](CCN)NC(=O)[C@@H](CC(C)C)NC(=O)[C@H](C)N(C)C(=O)[C@H](CO)NC(=O)[C@H](Cc2ccc(-c3ccccc3)cc2)NC(=O)[C@H](C(C)C)NC(=O)[C@H](Cc2c[nH]c3ccccc23)NC(=O)[C@H](CC(=O)O)NC(=O)[C@H](Cc2ccc(O)cc2)NC(=O)[C@H](CC(N)=O)NC(=O)CSC[C@@H](C(=O)N[C@@H](C)C(N)=O)NC(=O)[C@H]([C@@H](C)O)NC(=O)[C@H](C(C)C)NC1=O` [Compound 1261] ({CH2CO}-NYDWV[Bip]S[NMeA][dL][Dab]LVTCA-NH2; thioether N-14), for which the IC50 under setting [1] amounted to 0.08 µM.

For `CC(C)C[C@@H]1NC(=O)[C@H](CCCCN)NC(=O)[C@@H](CC(C)C)NC(=O)[C@H](C)N(C)C(=O)[C@H](CCC(=O)O)NC(=O)[C@H](Cc2ccc(-c3ccccc3)cc2)NC(=O)[C@H](C(C)C)NC(=O)[C@H](Cc2c[nH]c3ccccc23)NC(=O)[C@H](CC(=O)O)NC(=O)[C@H](Cc2ccc(O)cc2)NC(=O)[C@H](Cc2ccncc2)NC(=O)CSC[C@@H](C(=O)N[C@@H](C)C(N)=O)NC(=O)[C@H](C(C)O)NC(=O)[C@H](C(C)C)NC1=O` (stereo partly drawn) [Compound 2057] ({CH2CO}-[4Pal]YDWV[Bip]E[NMeA][dL]KLV[Thr(3ξ)]CA-NH2; thioether N-14), the IC50 under setting [1] worked out at 0.04 µM.

Consider `Cc1cccc(C[C@@H]2NC(=O)[C@H](CC(=O)O)NC(=O)[C@H](Cc3ccncc3)NC(=O)[C@H](CN)NC(=O)CSC[C@@H](C(=O)N[C@@H](C)C(N)=O)NC(=O)[C@H]([C@@H](C)O)NC(=O)[C@H](C(C)C)NC(=O)[C@H](CC(C)C)NC(=O)[C@H](CCN)NC(=O)[C@@H](CC(C)C)NC(=O)[C@H](C)N(C)C(=O)[C@H](C(C)C)NC(=O)[C@H](Cc3ccc(-c4ccccc4)cc3)NC(=O)[C@H](C(C)C)NC2=O)c1` [Compound 1543] ({CH2CO}-[Dap][4Pal]D[Phe(3-Me)]V[Bip]V[NMeA][dL][Dab]LVTCA-NH2; thioether N-14), for which, under setting [1], the IC50 was determined as 0.01 µM.

For `Cc1cccc(C[C@@H]2NC(=O)[C@H](CC(=O)O)NC(=O)[C@H](Cc3ccc(C(=O)O)cc3)NC(=O)[C@H](Cc3ccncc3)NC(=O)CSC[C@@H](C(N)=O)NC(=O)[C@H](CCCN)NC(=O)[C@H](C(C)C)NC(=O)[C@H](CC3CCCCC3)NC(=O)[C@H](CCN)NC(=O)[C@@H](CC(C)C)NC(=O)[C@H](C)N(C)C(=O)[C@H](CCCNC(N)=O)NC(=O)[C@H](Cc3ccc(-c4ccccc4)cc3)NC(=O)[C@H](C(C)C)NC2=O)c1` [Compound 1897] ({CH2CO}-[4Pal][Phe(4-COOH)]D[Phe(3-Me)]V[Bip][Cit][NMeA][dL][Dab][Cha]V[Orn]C-NH2; thioether N-14), under setting [1], the half-inhibitory concentration (IC50) was determined as 0.01 µM.

For the origin of these results see patent US20240409585A1, “MACROCYCLIC IMMUNOMODULATORS” (priority 2021, published 2024).
